Assay results taken from US20190255086A1, “Compositions and Methods for Treating an Infection” (CMPD Licensing, LLC, priority 2015, published 2019).
Read-outs that look alike come from different tables or passages of the source.

Assays:
[1] = system: Shigella boydii; assay: Expected efficacy of anti-bacterial agents against various bacteria (Tables 5 and 6); conditions: Gram: neg
[2] = system: Enterobacter aerogenes; assay: as above; conditions: Gram: neg
[3] = system: Shigella dysenteriae; assay: as above; conditions: Gram: neg
[4] = system: Acinetobacter baumannii; assay: as above; conditions: Gram: neg
[5] = system: gram-positive staphylococci and streptococci; conditions: general background statement; cited from earlier work
[6] = system: Rickettsiae
[7] = system: Neisseria gonorrhoeae; assay: Expected efficacy of anti-bacterial agents against various bacteria (Tables 5 and 6); conditions: Gram: neg
[8] = system: Proteus mirabilis; assay: as above; conditions: Gram: neg
[9] = system: Methicillin resistant staph aureus (MRSA); assay: as above; conditions: Gram: pos
[10] = system: Acinetobacter lwoffii; assay: as above; conditions: Gram: neg
[11] = system: Haemophilus influenzae; assay: as above; conditions: Gram: neg
[12] = system: Citrobacter diversus; assay: as above; conditions: Gram: neg
[13] = system: Klebsiella oxytoca; assay: as above; conditions: Gram: neg
[14] = system: Vibrio cholerae; assay: as above; conditions: Gram: neg
[15] = system: Pseudomonas aeruginosa; assay: as above; conditions: Gram: neg
[16] = system: Citrobacter freundii; assay: as above; conditions: Gram: neg
[17] = system: Providencia rettgeri; assay: as above; conditions: Gram: neg
[18] = system: Escherichia coli; assay: as above; conditions: Gram: neg
[19] = system: Clostridium perfringens
[20] = system: Neisseria meningitidis; assay: Expected efficacy of anti-bacterial agents against various bacteria (Tables 5 and 6); conditions: Gram: neg
[21] = system: Klebsiella pneumoniae; assay: as above; conditions: Gram: neg
[22] = system: Providencia stuartii; assay: as above; conditions: Gram: neg
[23] = system: Corynebacterium urealyticum; assay: as above; conditions: Gram: pos
[24] = system: Salmonella typhi; assay: as above; conditions: Gram: neg
[25] = system: Enterobacter sakazakii; assay: as above; conditions: Gram: neg
[26] = system: Serratia marcescens; assay: as above; conditions: Gram: neg
[27] = system: Streptococcus pyogenes; assay: as above; conditions: Gram: pos
[28] = system: Shigella flexneri; assay: as above; conditions: Gram: neg
[29] = system: Corynebacterium jeikeium; assay: as above; conditions: Gram: pos
[30] = system: Bartonella bacilliformis; assay: as above; conditions: Gram: neg
[31] = system: Shigella sonnei; assay: as above; conditions: Gram: neg
[32] = system: Staphylococcus aureus (MSSA); assay: as above; conditions: Gram: pos
[33] = system: Pseudomonas fluorescens; assay: as above; conditions: Gram: neg
[34] = system: Proteus vulgaris; assay: as above; conditions: Gram: neg
[35] = system: Acinetobacter calcoaceticus; assay: as above; conditions: Gram: neg
[36] = system: Yersinia pestis
[37] = system: Klebsiella (Calymmatobacterium) granulomatis; assay: Expected efficacy of anti-bacterial agents against various bacteria (Tables 5 and 6); conditions: Gram: neg
[38] = system: Enterobacter cloacae; assay: as above; conditions: Gram: neg
[39] = system: Morganella morganii; assay: as above; conditions: Gram: neg
[40] = system: Legionella pneumophila
[41] = system: Francisella tularensis
[42] = system: Campylobacter jejuni; assay: Expected efficacy of anti-bacterial agents against various bacteria (Tables 5 and 6); conditions: Gram: neg
[43] = system: Moraxella catarrhalis; assay: as above; conditions: Gram: neg
[44] = system: Bordetella pertussis; assay: as above; conditions: Gram: neg
[45] = system: Brucella species
[46] = system: Haemophilus ducreyi; assay: Expected efficacy of anti-bacterial agents against various bacteria (Tables 5 and 6); conditions: Gram: neg
[47] = system: Aspergillus fumigatus; assay: Expected efficacy of anti-fungal agents against various fungi (Table 4)
[48] = system: Cryptococcus neoformans; assay: as above
[49] = system: Candida species; assay: as above
[50] = system: Coccidioides immitis; conditions: expected efficacy
[51] = system: Blastomyces dermatitidis; assay: Expected efficacy of anti-fungal agents against various fungi (Table 4)
[52] = system: Diphtheroids; assay: Expected efficacy of anti-bacterial agents against various bacteria (Tables 5 and 6); conditions: Gram: pos
[53] = system: Viridans group streptococci; assay: as above; conditions: Gram: pos
[54] = system: Chlamydia trachomatis; assay: as above; conditions: Gram: n/a
[55] = system: Haemophilus parainfluenzae; assay: as above; conditions: Gram: neg
[56] = system: Chlamydia pneumoniae; assay: as above; conditions: Gram: n/a
[57] = system: Enterococcus faecalis; assay: as above; conditions: Gram: pos
[58] = system: Streptococcus pneumoniae; assay: as above; conditions: Gram: pos
[59] = system: Enterococcus faecium; assay: as above; conditions: Gram: pos
[60] = system: Mycoplasma pneumoniae; assay: as above; conditions: Gram: n/a
[61] = system: Clostridium difficile; assay: as above; conditions: Gram: anaer
[62] = system: Staphylococcus epidermidis; assay: as above; conditions: Gram: pos
[63] = system: Peptostreptococcus; assay: as above; conditions: Gram: pos
[64] = system: Streptococcus agalactiae; assay: as above; conditions: Gram: pos
[65] = system: Chlamydia psittaci
[66] = system: Bacteroides fragilis; assay: Expected efficacy of anti-bacterial agents against various bacteria (Tables 5 and 6); conditions: Gram: anaer
[67] = system: Aspergillus terreus; assay: Expected efficacy of anti-fungal agents against various fungi (Table 4)
[68] = system: Aspergillus niger; assay: as above
[69] = system: Fusarium species; assay: as above

For `C/C(=C\C(=O)OCCCCCCCCC(=O)O)C[C@@H]1OC[C@H](C[C@@H]2O[C@H]2[C@@H](C)[C@H](C)O)[C@@H](O)[C@H]1O` [Bactroban, Mupirocin], the “Efficacy of various antibiotic agents” value [1] was “no”, the “Efficacy of various antibiotic agents” value [2] was “no” and the “Efficacy of various antibiotic agents” value [3] was “no”. The “Efficacy of various antibiotic agents” value [4] was “no”, the “activity against gram-positive staphylococci and streptococci” value [5] was “excellent activity” and the “Efficacy of various antibiotic agents” value ([6]; expected efficacy, Rickettsiae, Gram: neg) was “no”. The “Efficacy of various antibiotic agents” value [7] was “no”, the “Efficacy of various antibiotic agents” value [8] was “no” and the “Efficacy of various antibiotic agents” value [9] was “yes”. For the same molecule, the “Efficacy of various antibiotic agents” value [10] was “no”, the “Efficacy of various antibiotic agents” value [11] was “no” and the “Efficacy of various antibiotic agents” value [12] was “no”. For the same molecule, the “Efficacy of various antibiotic agents” value [13] was “no”, the “Efficacy of various antibiotic agents” value [14] was “no” and the “Efficacy of various antibiotic agents” value [15] was “no”. The “Efficacy of various antibiotic agents” value [16] was “no”, the “Efficacy of various antibiotic agents” value [17] was “no” and the “Efficacy of various antibiotic agents” value [18] was “no”. The “Efficacy of various antibiotic agents” value ([19]; expected efficacy, Clostridium perfringens, Gram: anaer) was “no”, the “Efficacy of various antibiotic agents” value [20] was “no” and the “Efficacy of various antibiotic agents” value [21] was “no”. For the same molecule, the “Efficacy of various antibiotic agents” value [22] was “no”, the “Efficacy of various antibiotic agents” value [23] was “no” and the “Efficacy of various antibiotic agents” value [24] was “no”. For the same molecule, the “Efficacy of various antibiotic agents” value [25] was “no”, the “Efficacy of various antibiotic agents” value [26] was “no” and the “Efficacy of various antibiotic agents” value [27] was “yes”. The “Efficacy of various antibiotic agents” value [28] was “no”, the “Efficacy of various antibiotic agents” value [29] was “no” and the “Efficacy of various antibiotic agents” value [30] was “no”. The “Efficacy of various antibiotic agents” value [31] was “no”, the “Efficacy of various antibiotic agents” value [32] was “yes” and the “Efficacy of various antibiotic agents” value [33] was “no”. The “Efficacy of various antibiotic agents” value [34] was “no”, the “Efficacy of various antibiotic agents” value [35] was “no” and the “Efficacy of various antibiotic agents” value ([36]; expected efficacy, Yersinia pestis, Gram: neg) was “no”. For the same molecule, the “Efficacy of various antibiotic agents” value [37] was “no”, the “Efficacy of various antibiotic agents” value [38] was “no” and the “Efficacy of various antibiotic agents” value [39] was “no”. The “Efficacy of various antibiotic agents” value ([40]; expected efficacy, Legionella pneumophila, Gram: neg) was “no”, the “Efficacy of various antibiotic agents” value ([41]; expected efficacy, Francisella tularensis, Gram: neg) was “no” and the “Efficacy of various antibiotic agents” value [42] was “no”. For the same molecule, the “Efficacy of various antibiotic agents” value [43] was “no”, the “Efficacy of various antibiotic agents” value [44] was “no” and the “Efficacy of various antibiotic agents” value ([45]; expected efficacy, Brucella species, Gram: neg) was “no”. The “Efficacy of various antibiotic agents” value [46] was “no”.

With `OC(Cn1cncn1)(Cn1cncn1)c1ccc(F)cc1F` [Fluconazole] the “Efficacy of various antifungal agents” value [47] was “yes”, the “Efficacy of various antifungal agents” value [48] was “yes” and the “Efficacy of various antifungal agents” value [49] was “yes”. For the same molecule, the “Efficacy of various antifungal agents” value [50] was “yes” and the “Efficacy of various antifungal agents” value [51] was “yes”.

For `CN[C@H](CC(C)C)C(=O)N[C@H]1C(=O)N[C@@H](CC(N)=O)C(=O)N[C@H]2C(=O)N[C@H]3C(=O)N[C@H](C(=O)N[C@H](C(=O)O)c4cc(O)cc(O)c4-c4cc3ccc4O)[C@H](O)c3ccc(c(Cl)c3)Oc3cc2cc(c3O[C@@H]2O[C@H](CO)[C@@H](O)[C@H](O)[C@H]2O[C@H]2C[C@](C)(N)[C@H](O)[C@H](C)O2)Oc2ccc(cc2Cl)[C@H]1O` [Vancomycin], the “Efficacy of various antibiotic agents” value [1] was “no”, the “Efficacy of various antibiotic agents” value [52] was “yes” and the “Efficacy of various antibiotic agents” value [2] was “no”. For the same molecule, the “Efficacy of various antibiotic agents” value [3] was “no”, the “Efficacy of various antibiotic agents” value [4] was “no” and the “Efficacy of various antibiotic agents” value [53] was “yes”. For the same molecule, the “Efficacy of various antibiotic agents” value [54] was “no”, the “Efficacy of various antibiotic agents” value [6] was “no” and the “Efficacy of various antibiotic agents” value [55] was “no”. The “Efficacy of various antibiotic agents” value [56] was “no”, the “Efficacy of various antibiotic agents” value [7] was “no” and the “Efficacy of various antibiotic agents” value [8] was “no”. The “Efficacy of various antibiotic agents” value [9] was “yes”, the “Efficacy of various antibiotic agents” value [10] was “no” and the “Efficacy of various antibiotic agents” value [11] was “no”. For the same molecule, the “Efficacy of various antibiotic agents” value [12] was “no”, the “Efficacy of various antibiotic agents” value [13] was “no” and the “Efficacy of various antibiotic agents” value [14] was “no”. For the same molecule, the “Efficacy of various antibiotic agents” value [15] was “no”, the “Efficacy of various antibiotic agents” value [16] was “no” and the “Efficacy of various antibiotic agents” value [17] was “no”. The “Efficacy of various antibiotic agents” value [18] was “no”, the “Efficacy of various antibiotic agents” value [19] was “no” and the “Efficacy of various antibiotic agents” value [20] was “no”. For the same molecule, the “Efficacy of various antibiotic agents” value [57] was “yes”, the “Efficacy of various antibiotic agents” value [58] was “yes” and the “Efficacy of various antibiotic agents” value [21] was “no”. For the same molecule, the “Efficacy of various antibiotic agents” value [22] was “no”, the “Efficacy of various antibiotic agents” value [23] was “yes” and the “Efficacy of various antibiotic agents” value [59] was “yes, not VRE”. The “Efficacy of various antibiotic agents” value [24] was “no”, the “Efficacy of various antibiotic agents” value [60] was “no” and the “Efficacy of various antibiotic agents” value [25] was “no”. For the same molecule, the “Efficacy of various antibiotic agents” value [26] was “no”, the “Efficacy of various antibiotic agents” value [27] was “yes” and the “Efficacy of various antibiotic agents” value [28] was “no”. For the same molecule, the “Efficacy of various antibiotic agents” value [29] was “yes”, the “Efficacy of various antibiotic agents” value [30] was “no” and the “Efficacy of various antibiotic agents” value [31] was “no”. For the same molecule, the “Efficacy of various antibiotic agents” value [32] was “yes”, the “Efficacy of various antibiotic agents” value [33] was “no” and the “Efficacy of various antibiotic agents” value [34] was “no”. The “Efficacy of various antibiotic agents” value [35] was “no”, the “Efficacy of various antibiotic agents” value [61] was “yes” and the “Efficacy of various antibiotic agents” value [62] was “yes”. The “Efficacy of various antibiotic agents” value [63] was “yes”, the “Efficacy of various antibiotic agents” value [36] was “no” and the “Efficacy of various antibiotic agents” value [37] was “no”. The “Efficacy of various antibiotic agents” value [38] was “no”, the “Efficacy of various antibiotic agents” value [39] was “no” and the “Efficacy of various antibiotic agents” value [40] was “no”. For the same molecule, the “Efficacy of various antibiotic agents” value [41] was “no”, the “Efficacy of various antibiotic agents” value [64] was “yes” and the “Efficacy of various antibiotic agents” value [42] was “no”. The “Efficacy of various antibiotic agents” value [65] was “no”, the “Efficacy of various antibiotic agents” value [43] was “no” and the “Efficacy of various antibiotic agents” value [44] was “no”. The “Efficacy of various antibiotic agents” value [45] was “no”, the “Efficacy of various antibiotic agents” value [46] was “no” and the “Efficacy of various antibiotic agents” value [66] was “no”.

With `C[C@@H](c1ncncc1F)[C@](O)(Cn1cncn1)c1ccc(F)cc1F` [Voriconazole] the “Efficacy of various antifungal agents” value [47] was “yes”, the “Efficacy of various antifungal agents” value [67] was “yes” and the “Efficacy of various antifungal agents” value [68] was “yes”. For the same molecule, the “Efficacy of various antifungal agents” value [49] was “yes” and the “Efficacy of various antifungal agents” value [69] was “yes”.
